# Test: ATP stability over 362 days, processed under acidic and hot-fill conditions
# Format: physicochemical
# Conditions: acidic conditions (pH 2.8; b60 also says pH 2.5), hot-fill conditions
# Text: FIG. 5 is a graphical representation 500 of the unexpectedly good results achieved through the method and composition described in connection with FIG. 4. Specifically, the graphical representation 500 illustrates a comparison of ATP stability for a composition or product of the disclosure (specifically, Formula A prepared according to method 400) compared against a control ATP product processed under acidic conditions (pH 2.5) and hot-fill conditions. The ATP stability measurements were calculated over three hundred sixty-two (362 days). For the control ATP, pH 2.8 (Δ), y=116.03e^−0.012x, R^2=0.966. For the encapsulated ATP Formula A, pH 2.8 (Δ), y=100.37e^−0.003x, R^2=0.9591.
# Specifically, Formula A continued to comprise about 33.43 wt % of ATP 100, 200 at the end of the 362 days, compared with the 1.44 wt % of ATP 100, 200 in the control ATP solution.
# FIG. 7 is a graphical representation 700 of the unexpectedly good results achieved through the method and composition described in connection with FIG. 6. Specifically, the graphical representation 700 illustrates a comparison of ATP stability for a composition or product of the disclosure (specifically, Formula B prepared according to method 600) compared against a control ATP product processed under acidic conditions (pH 2.8) and hot-fill conditions. ATP stability measurements were calculated over three hundred sixty-two (362) days. […]
smiles,measurement,value
"Nc1ncnc2c1ncn2[C@@H]1O[C@H](COP(=O)(O)OP(=O)([O-])OP(=O)([O-])O)[C@@H](O)[C@H]1O.[Na+].[Na+] [control ATP, adenosine triphosphate (ATP) disodium salt]","ATP 100, 200 comprised at the end of the 362 days",1.44 wt %

# From patent publication US20240285541A1, “SHELF STABLE ORGANIC NUCLEOTIDE COMPOSITIONS AND METHODS OF MANUFACTURING THE SAME” (Glanbia Nutritionals, Inc., priority 2023, published 2024)
